The nature of series [1]: Radioactive metabolites in urine and bile after IV administration of [14C] compound (I) to bile-duct cannulated monkeys. Particulars: IV infusion 2 mg/kg; for Metabolites in BDC-Monkeys (0-72 hr), Bile, % Dose / Metabolites in BDC-Monkeys (0-72 hr), Bile, % Rad: bile 0-72 hr; for Metabolites in BDC-Monkeys (0-72 hr), Urine, % Dose / Metabolites in BDC-Monkeys (0-72 hr), Urine, % Rad (% of total radioactivity in sample): urine 0-72 hr. Type of series: in vivo, monkey. The protocol: A separate bile-duct cannulated (BDC) monkey study was also conducted. […]
The C-14 label was on the carbon-2 of the thiazole ring.
HPLC was performed on an Agilent 1100™ system equipped with binary pumps, autoinjector, and a column heater. A Phenomenex Synergy Polar-RP® column (4.6×250 mm, 5 micron) was used for metabolite separation. All HPLC analyses were performed at 1 mL/min flow rate at 35° C. The HPLC mobile phase consisted of (A) water with 0.1% formic acid and (B) acetonitrile with 0.1% formic acid.
Each fraction of column eluent was evaporated to dryness on a Savant Speed-Vac (Savant Instruments Inc., Holbrook, N.Y.) and counted for radioactivity with a Packard Top Count® microplate scintillation analyzer (Packard Biosciences, Downers Grove, Ill.).
The pooled monkey and human urine samples (3-5 mL) were extracted with 2 volumes of acetonitrile/acetone (1:1). The mixtures were vortex mixed, sonicated and centrifuged at 3500 rpm for 10 min. The supernatants were evaporated to dryness. The residue was suspended in 0.3-0.5 mL of 30% acetonitrile in water and centrifuged at 13000 rpm for 5 min. Aliquots of the supernatants were injected onto the HPLC or analyzed by LSC for radioactivity recovery. Pooled urine samples from BDC monkeys and rats were centrifuged at 13000 rpm for 10 min and injected onto the HPLC for profiling without further treatment.
A pooled bile sample (0-72 h) from BDC monkeys was diluted fifteen-fold with 20% acetonitrile in water with 0.1% formic acid. The diluted sample was centrifuged at 13000 rpm for 5 min. Aliquots of the supernatant was injected onto HPLC or analyzed by LSC for radioactivity recovery.
The LC/MS system used for analysis of plasma, urine, bile, and fecal samples consisted of an Agilent 1100™ HPLC system connected to a Finnigan LCQ-DecaXP mass spectrometer. Samples were analyzed using positive electrospray ionization. The capillary temperature used for analysis was 320° C., and the nitrogen gas flow rate, spray current, and voltages were adjusted to give maximum sensitivity. The HPLC conditions were described in section 3.3.1.
Counts per min (CPM) were determined on a Packard TopCount NXT microplate scintillation and luminescence counter. For each injection, the average CPM value (2-4 CPM) obtained from fractions between 2-3 min (column void) in the chromatogram was subtracted from the CPM value of each fraction. Biotransformation profiles were prepared by plotting the background subtracted CPM values against time-after-injection. Radioactivity peaks in the biotransformation profiles were reported as a percentage of the total radioactivity (after background subtraction) collected during the entire HPLC run.

A short description of series [2]: Metabolite profile of [14C] compound (I) in monkey liver microsome incubations. Type of series: in vitro ADME, cynomolgus monkey. Particulars: (Ia) 20 μM, 15 min, 37° C., 2 mg/mL microsomal protein, 2.0 mM NADPH. The procedure:
The compound of formula (I) was used as the [^14C] compound (Ia) (30.4 μCi/mg, radiochemical purity 99.2%), as the monohydrate of the free base. The C-14 label was on the carbon in the 2-position of the thiazole ring.
Freshly isolated rat hepatocyte preparations were prepared from one male Sprague-Dawley rat. Rat Hepatocytes were prepared according to a standard procedure (Seglen, PO. Preparation of isolated rat liver cells. Methods Cell Biol., 1976, 13: 29-83). Cryopreserved cynomolgus monkey hepatocytes (male, pooled, n=6) and human hepatocytes (3 individual preparation) were purchased from In Vitro Technologies (Baltimore, Md.). Microsomes from male SD Rats (pooled, n=200, 20 mg/mL) and male cynomolgus monkeys (pooled, n=8, 20 mg/mL) were obtained from Xenotech LLC, Kansas City, Kans. Human liver microsomes (male, pooled, n=38) were from BD-Gentest, Woburn, Mass.
A 6 mM stock solution of the compound of formula (Ia) (the [^14C] of the compound of formula (I) was prepared at by dissolving 3.7 mg of the compound of formula (Ia) into 1:1 acetonitrile/DMSO. The 2 mM stock solution of the compound of formula (Ia) was obtained by diluting an aliquot of the 6 mM stock solution 3-fold with acetonitrile.
Hepatocyte incubations were conducted at 37° C. for 3 h in a NAPCO CO2 6000 incubator (VWR Scientific Products) under a 5% CO2 atmosphere using an orbital shaker at 90 rpm. For each incubation, the final concentration of compound (Ia) was 20 μM and the hepatocyte concentrations were ˜2 million cells/mL. A control incubation, in the absence of hepatocytes, was also performed for 3 h. The incubations were stopped by adding one volume of ice-cold acetonitrile. Each 0.5 mL incubation contained 0.1 M potassium phosphate buffer (pH 7.4), 2.5 mM MgCl2, 2 mg/mL microsomal protein, and 2.0 mM NADPH. The final substrate concentration was 20 μM. The mixtures were incubated in a shaking water bath at 37° C. for 15 min. Control incubations in the absence of microsomes or NADPH were performed for each species. The reactions were stopped with the addition of 1 mL of ice-cold acetonitrile.
HPLC was performed on a Waters Alliance™ system equipped with Waters 2695 pumps and a photodiode array detector (Waters 2996). A Phenomenex Synergy Polar-RP® column (4.6×250 mm, 5 micron) was used for metabolite separation. All HPLC analyses were performed at 1 mL/min flow rate at room temperature. Two HPLC mobile phase and gradient systems were used because all metabolites could not be completely separated on either of the individual HPLC systems. The first system consisted of (A) water with 0.1% formic acid and (B) acetonitrile with 0.1% formic acid as mobile phase. The linear gradient was as follows: 0 min, 20% B; 1 min, 20% B; 41 min, 35% B; 42 min, 90% B; 44 min, 90% B. The column was re-equilibrated at 20% B for 6 min before the next injection. The second HPLC system was used to separate certain co-eluting metabolites that could not be separated by the first system. The mobile phase consisted of (A) water with 0.1% triflouroacetic acid (TFA) and (B) acetonitrile with 0.1% TFA. The gradient was as follows: 0 min, 20% B; 1 min, 20% B; 51 min, 35% B; 52 min, 90% B; 54 min 90% B. The column was equilibrated at 20% B for 6 min prior to the next injection.
On-line radioactivity detection (RAD) was conducted using an INUS β-RAM detector (Model 3, INUS, Tampa, Fla.). The β-RAM was operated with a 500 μL liquid flow cell in the homogeneous liquid scintillation counting mode. A flow rate of 2 mL/min of scintillation cocktail was mixed with the HPLC effluent. The effluent from HPLC was split to the β-RAM detector (90%) and the mass spectrometer (10%) by adjusting the length and diameter of post column tubings. The β-RAM detector provided integrated output detailing the percentage and amount of radioactivity under each radioactive peak.
Hepatocyte and liver microsomal incubations were quenched with acetonitrile and were vortex-mixed for 3 min. […]
For orientation: Liver microsomes are a subcellular fraction often used to study metabolism.

In the case of `Cc1nc(Nc2ncc(C(=O)Nc3c(C)cccc3Cl)s2)cc(N2CCNCC2)n1` [M4 (II)], in series [1], the “Metabolites in BDC-Monkeys (0-72 hr), Bile, % Dose” value (“Metabolites … Bile, % Dose” below) is recorded as 0.5% and the “Metabolites in BDC-Monkeys (0-72 hr), Bile, % Rad” value (shortened to “Metabolites … Bile, % Rad”) worked out at 0.7%. In addition, the “% of Radioactivity in Microsomes, Monkey” value in series [2] amounted to 5.8%.
In the case of `Cc1nc(Nc2ncc(C(=O)Nc3c(C)cccc3Cl)s2)cc(N2CC[N+]([O-])(CCO)CC2)n1` [M5 (III)], in series [1], the “Metabolites … Bile, % Dose” value is recorded as 5.0%; the “Metabolites … Bile, % Rad” value was determined as 7.4%; the “Metabolites in BDC-Monkeys (0-72 hr), Urine, % Dose” value (“Metabolites … Urine, % Dose” below) was 7.0%; the “Metabolites in BDC-Monkeys (0-72 hr), Urine, % Rad (% of total radioactivity in sample)” value worked out at 70.7%. The “% of Radioactivity in Microsomes, Monkey” value in series [2] stood at 8.6%.
`Cc1nc(Nc2ncc(C(=O)Nc3c(C)cccc3Cl)s2)cc(N2CCN(CC(=O)O)CC2)n1` [M6 (IV), 2-(4-(6-(5-((2-Chloro-6-methylphenyl)carbamoyl)thiazol-2-ylamino)-2-methylpyrimidin-4-yl)piperazin-1-yl)acetic acid]: in series [1], the “Metabolites … Bile, % Dose” value is reported as 6.3%; the “Metabolites … Bile, % Rad” value worked out at 9.4%; the “Metabolites … Urine, % Dose” value worked out at 0.3%; the “Metabolites in BDC-Monkeys (0-72 hr), Urine, % Rad (% of total radioactivity in sample)” value is 2.8%. In addition, the “% of Radioactivity in Microsomes, Monkey” value in series [2] is on record as 2.1%.
On to `Cc1nc(Nc2ncc(C(=O)Nc3c(C)cc(O)cc3Cl)s2)cc(N2CCN(CCO)CC2)n1` [M20 (V)], for which, in series [1], the “Metabolites … Bile, % Dose” value amounted to 2.4%; the “Metabolites … Bile, % Rad” value was 3.5%; the “Metabolites … Urine, % Dose” value amounted to 0.3%; the “Metabolites in BDC-Monkeys (0-72 hr), Urine, % Rad (% of total radioactivity in sample)” value was 2.7%. Moreover, the “% of Radioactivity in Microsomes, Monkey” value in series [2] amounted to 30.0%.
Regarding `Cc1nc(Nc2ncc(C(=O)Nc3c(Cl)cccc3CO)s2)cc(N2CCN(CCO)CC2)n1` [M24 (VI), N-(2-chloro-6-(hydroxymethyl)phenyl)-2-(6-(4-(2-hydroxyethyl)piperazin-1-yl)-2-methylpyrimidin-4-ylamino)thiazole-5-carboxamide], in series [1], the “Metabolites … Bile, % Dose” value is on record as 3.0%; the “Metabolites … Bile, % Rad” value stood at 4.4%; the “Metabolites … Urine, % Dose” value is listed as 0.1%; the “Metabolites in BDC-Monkeys (0-72 hr), Urine, % Rad (% of total radioactivity in sample)” value is reported as 1.4%. In addition, the “% of Radioactivity in Microsomes, Monkey” value in series [2] was 30.0%.
On to `Cc1nc(Nc2ncc(C(=O)Nc3c(C)cccc3Cl)s2)cc(N2CCN(CCO)CC2)n1` [Parent (I), N-(2-Chloro-6-methylphenyl)-2-[[6-[4-(2-hydroxyethyl)-1-piperazinyl]-2-methyl-4-pyrimidinyl]amino]-5-thiazolecarboxamide], for which, in series [1], the “Metabolites … Bile, % Dose” value worked out at 3.2%; the “Metabolites … Bile, % Rad” value is 4.7%; the “Metabolites … Urine, % Dose” value worked out at 0.1%; the “Metabolites in BDC-Monkeys (0-72 hr), Urine, % Rad (% of total radioactivity in sample)” value is on record as 1.4%. Moreover, in series [2], the “% of Radioactivity in Microsomes, Monkey” value is on record as 27.7%.

These data come from patent publication US20060211705A1, “'N-(2-chloro-6-methylphenyl)-2-[[6-[4-(2-hydroxyethyl)-1-piperazinyl]-2-methyl-4-pyrimidinyl]amino]-5-thiazolecarboxamides metabolites” (priority 2005, published 2006).
